Laboratory results as given in patent publication US20120101093A1, “SUBSTITUTED IMIDAZO[1,2-A]PYRIDINE DERIVATIVES, PHARMACEUTICAL COMPOSITIONS, AND METHODS OF USE AS BETA-SECRETASE INHIBITORS” (HIGH POINT PHARMACEUTICALS, LLC, priority 2009, published 2012).
Where a name gives a salt, the structure may show the parent alone.

What was measured:
BACE-1 enzyme = biological target: T1, BACE-1 enzyme (Homo sapiens, UniProt P56817); test: BACE Fluorescence Resonance Energy Transfer (FRET) Assay; type: biochemical; details: pH 4-4.5, 30 min pre-incubation, about 1.5 hours reaction
T1 construct: purchased R & D Systems 931AS
T1 sequence (P56817 46-457 limits assumed): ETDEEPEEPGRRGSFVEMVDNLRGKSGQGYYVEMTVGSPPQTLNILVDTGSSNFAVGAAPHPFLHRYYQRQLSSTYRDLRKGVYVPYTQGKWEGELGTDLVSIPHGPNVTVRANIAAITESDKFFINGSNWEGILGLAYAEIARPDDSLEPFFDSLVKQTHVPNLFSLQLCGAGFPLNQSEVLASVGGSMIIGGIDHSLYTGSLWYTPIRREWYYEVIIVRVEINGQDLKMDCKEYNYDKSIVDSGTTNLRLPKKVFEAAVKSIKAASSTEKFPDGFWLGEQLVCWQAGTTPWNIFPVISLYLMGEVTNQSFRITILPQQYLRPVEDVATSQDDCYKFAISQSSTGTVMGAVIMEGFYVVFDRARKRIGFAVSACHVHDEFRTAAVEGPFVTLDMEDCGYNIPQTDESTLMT
How it was run: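 BACE-1 enzyme pre-incubated 30 min with compound in 7.5% DMSO in 50 mM sodium acetate pH 4-4.5, 0.01% CHAPS, 0.0125% Triton X-100, 0.006% EDTA. Rhodamine/quencher peptide substrate added; ~1.5 h at room temperature, fluorescence read at 540/585 nm. IC50 or percent inhibition at one concentration.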

[1] = tested on: Aβ1-40 secreted from HEK293 cells stably expressing wildtype human APP695 protein (HEK-APPwt cells); test: Aβ Cell Based Assay (Aβ1-40 secretion, ELISA); details: Homo sapiens, HEK293, 6 h, 6 hours incubation, reduction of Aβ1-40 secretion
Experimental: Aβ Cell Based Assay Procedure
In the following assay, the proteolytic activity of BACE in cells exposed to varying concentrations of a compound of interest is measured by observing the amount of Aβ1-40 secreted from HEK293 cells (Human Embryonic Kidney epithelial cell line) stably expressing wildtype human APP695 protein (HEK-APPwt cells).
HEK-APPwt cells were grown in high glucose DMEM (Dulbecco's Modified Eagles Medium SIGMA Cat.# D5796) supplemented with 25 mM HEPES (4-(2-hydroxyethyl)-1-piperazineethanesulfonic acid) (pH 7.4) (Invitrogen Cat.# 15630-114), 0.1 mM NEAA (Non-essential Amino Acids) (BioWhittaker Cat. #13-114E), 10% fetal bovine serum (SIGMA Cat. #F4135) and 250 μg/mL hygromycin (Invitrogen Cat. #10687-010) in T-225 flasks at 37° C. with 5% CO2 and humidity control.
Test compounds were initially prepared in DMSO and diluted with DMEM media containing 2% FBS (Fetal bovine serum). Ten standard compound solutions were prepared having a range of concentrations. The standard compound solutions were used to determine the EC50 of the test compound. The range of concentrations chosen may depend on the compound's predicted potency.
To prepare the cells for the assay, a flask containing HEK-APPwt cells were trypsinized briefly (1 mL trypsin), and once the cells detached, 4 mL of 10% FBS-DMEM was added to the flask. The detached cells were centrifuged at 900 rpm for 5 min to form a pellet.
The HEK-APPwt cell pellet was re-suspended with 10 mL DMEM media containing 2% FBS. 80 μL of the cell suspension was added to each well of a 96-well cell culture plate to give 100×10^4cells/ml. 10 μL of a standard compound solution was added to each well of the 96-well cell culture plate followed by 10 μL of Alamar blue solution. The cells were incubated at 37° C. in a 5% CO2 incubator for 6 hours.
At the end of the incubation, the plates were removed from incubator, and the supernatant was collected. A≈1-40 concentration in the medium was measured by using a commercial Aβ1-X ELISA kit (IBL, Japan Cat. #27729). Briefly, the ELISA plates were coated with an anti-human AO (N)(82E1) mouse IgG monoclonal antibody. A horseradish peroxidase conjugated anti-human Aβ11-28 mouse IgG monoclonal antibody was used for detection. The cell culture supernatant was diluted with EIA buffer +protease inhibitors (kit buffer containing protease inhibitors (1 mL PI/30 mL buffer)). A 100 μL aliquot of the diluted supernatant was added to each well of the ELISA plate and incubated for 6 hrs at 4° C. The ELISA plate was washed 8 times with phosphate buffered saline (PBS) containing 0.05% Tween 20.
A 100 μL of detection antibody was then added and incubated for 1 hour at 4° C. The plate was washed 8 times with PBS buffer containing 0.05% Tween 20 followed by addition of 100 μL of the chromogen tetramethylbenzidine (TMB). The plate was incubated in the dark at room temperature for about 30 min and a stop solution (1N H2SO4) was added.
The intensity of the color developed was measured at 450 nm. The optical density at 450 nm (OD450) is proportional to the concentration of human Aβ1-40 secreted by the cell. As a reference, N-[N-(3,5-difluorophenacetyl-L-alanyl)]-S-phenylglycine t-butyl ester (DAPT, a γ-secretase inhibitor) was used to indicate 100% inhibition of BACE activity. Thus, the assay measures the ability of a compound of interest to reduce Aβ1-40 secretion. For select compounds, compound potency is reported in Table 3 as the EC50 by calculating the percent inhibition at all concentration levels and the data were fit with non-linear curve fitting algorithm using GraphPad Prism.

IC50 (BACE-1 enzyme) [µM]	SMILES	EC50 [1] [µM]
0.32	Cc1cccc2nc(C(=O)Nc3nc4cc(-c5cccc(C(F)(F)F)c5)ccc4[nH]3)cn12 [Example 1, 5-Methyl-imidazo[1,2-a]pyridine-2-carboxylic acid[5-(3-trifluoromethyl-phenyl)-1H-benzoimidazol-2-yl]-amide]	0.53
0.27	Cc1cccc2nc(C(=O)Nc3nc4cc(-c5ccc(C(F)(F)F)cc5)ccc4[nH]3)cn12 [Example 23, 5-Methyl-imidazo[1,2-a]pyridine-2-carboxylic acid [5-(4-trifluoromethyl-phenyl)-1H-benzoimidazol-2-yl]-amide]	0.66
0.42	Cc1cccc2nc(C(=O)Nc3nc4cc(OCc5cccc(C(F)(F)F)c5)ccc4[nH]3)cn12 [Example 26, 5-Methyl-imidazo[1,2-a]pyridine-2-carboxylic acid [5-(3-trifluoromethyl-benzyloxy)-1H-benzoimidazol-2-yl]-amide]	1.21
0.32	Cc1cccn2cc(C(=O)Nc3nc4cc(-c5cccc(OC(F)(F)F)c5)ccc4[nH]3)nc12 [Example 28, 8-Methyl-imidazo[1,2-a]pyridine-2-carboxylic acid [5-(3-trifluoromethoxy-phenyl)-1H-benzoimidazol-2-yl]-amide]	2.13

Continued, compound first:

SMILES	IC50 (BACE-1 enzyme) [µM]	EC50 [1] [µM]
O=C(Nc1nc2cc(-c3cccc(C(F)(F)F)c3)ccc2[nH]1)c1cn2c(OC3CCNCC3)cccc2n1 [Example 2, 5-(Piperidin-4-yloxy)-imidazo[1,2-a]pyridine-2-carboxylic acid[5-(3-trifluoromethyl-phenyl)-1H-benzoimidazol-2-yl]-amide trihydrochloride]	0.98	6.4
CN1CCC(Oc2cccc3nc(C(=O)Nc4nc5cc(-c6cccc(C(F)(F)F)c6)ccc5[nH]4)cn23)CC1 [Example 3, 5-(1-Methyl-piperidin-4-yloxy)-imidazo[1,2-a]pyridine-2-carboxylic acid[5-(3-trifluoromethyl-phenyl)-1H-benzoimidazol-2-yl]-amide]	1.15	4.02
CN1CCN(Cc2cccc3nc(C(=O)Nc4nc5cc(-c6cccc(C(F)(F)F)c6)ccc5[nH]4)cn23)CC1 [Example 10, 5-(4-Methyl-piperazin-1-ylmethyl)-imidazo[1,2-a]pyridine-2-carboxylic acid [5-(3-trifluoromethyl-phenyl)-1H-benzoimidazol-2-yl]-amide]	0.3	2.53
Cc1cccc2nc(C(=O)Nc3nc4ccc(-c5cccc(C(F)(F)F)c5)cc4n3C)cn12 [Example 11, 5-Methyl-imidazo[1,2-a]pyridine-2-carboxylic acid [1-methyl-6-(3-trifluoromethyl-phenyl)-1H-benzoimidazol-2-yl]-amide]	0.55	8.83
Cc1cccc2nc(C(=O)Nc3nc4cc(OCc5ccccc5)ccc4[nH]3)cn12 [Example 12, 5-Methyl-imidazo[1,2-a]pyridine-2-carboxylic acid (5-benzyloxy-1H-benzoimidazol-2-yl)-amide]	0.2	2.01
Cc1cccc2nc(C(=O)Nc3nc4cc(OCc5ccc(C(F)(F)F)cc5)ccc4[nH]3)cn12 [Example 18, 5-Methyl-imidazo[1,2-a]pyridine-2-carboxylic acid [5-(4-trifluoromethyl-benzyloxy)-1H-benzoimidazol-2-yl]-amide]	0.16	0.42
Cc1cccc2nc(C(=O)Nc3nc4cc(-c5cccc(Cl)c5)ccc4[nH]3)cn12 [Example 27, 5-Methyl-imidazo[1,2-a]pyridine-2-carboxylic acid [5-(3-chloro-phenyl)-1H-benzoimidazol-2-yl]-amide]	0.5	1.45
Cc1cccn2cc(C(=O)Nc3nc4cc(-c5cccc(C(F)(F)F)c5)ccc4[nH]3)nc12 [Example 32, 8-Methyl-imidazo[1,2-a]pyridine-2-carboxylic acid [5-(3-trifluoromethyl-phenyl)-1H-benzoimidazol-2-yl]-amide]	0.52	1.36
